In PubChem BioAssay AID2060613 (Molecular Pharmacology Branch, DTP, NCI, 2025):

System: 233499-124-R-J3-PDC complex spheroid viability
Experiment: Anticancer human tumor 233499-124-R-J3-PDC patient-derived colon adenocarcinoma cell line growth inhibition [CLK]
Conditions: for IC50: curve of first compound; for viability, T/C: stronger effect = lower value
Description: A high-throughput screen of multi-cell type tumor spheroids was designed to identify active combinations of […] and targeted small molecules. Complex spheroids include a stromal component modeled by human endothelial cells (HUVEC) and fibroblasts modeled by human mesenchymal stem cells (MSCs). The concentration ranges selected for each drug and investigational agent were based upon clinically achievable concentrations if the clinical Cmax of the agent was known.
Compounds. The drugs and investigational agents: cirtuvivint (SM08502; NSC835563), CC-671 (NSC850746), vemurafenib (NSC761431), tapotoclax (NSC804041), sotorasib (NSC818433), adagrasib (NSC831453), MRTX-1133 (NSC836407), BAY2416964 (NSC825713), copanlisib (NSC816437), inavolisib (NSC800729), abemaciclib (NSC768073), osimertinib (NSC779217), entinostat (NSC756642), eltanexor (KPT-8602, NSC794443), venetoclax (NSC766270), ceralasertib (NSC777638), bortezomib (NSC756655), olaparib (NSC753686), talazoparib (NSC767125), alisertib (NSC759677), peposertib (NSC802822), gemcitabine (NSC613327), 5-fluorouracil (NSC19893), SN-38 (NSC673596), oxaliplatin (NSC266046), paclitaxel (NSC125973), and doxorubicin (NSC123127), were obtained from the National Cancer Institute (NCI) Developmental Therapeutics Program Chemical Repository. The FDA-approved anticancer drug set is available from the Developmental Therapeutics Program at https://dtp.cancer.gov/organization/dscb/obtaining/available plates.htm. […] The stock solutions were prepared in dimethyl sulfoxide (DMSO, Sigma-Aldrich, St. Louis, MO, cat. D2650), except for the platinum complexes which were prepared in saline (Quality Biological, Gaithersburg, MD, cat. 114-055-101), at 800-fold the tested concentration and stored at -70 degrees C prior to their use. All drugs and investigational agents were tested over a range starting from a high concentration at or near the clinical Cmax and decreasing in half-log increments. If the clinical Cmax for an agent had not been determined, the highest concentration tested was 10 microM.
Cell Culture. All cells were maintained in an incubator at 37 degrees C and 5% CO2 with 95% humidity. The PDC lines were cultured according to standard operating procedures established by the NCI PDMR. Briefly, all PDCs were thawed and cultured in Matrigel-coated flasks prepared with a working solution of 1X Ham's F-12 nutrient mix, without supplementation (Invitrogen, Waltham, MA, cat. 11765054), 100 U/mL penicillin-streptomycin (Invitrogen, cat. 15140122), and 2.5% Matrigel (Corning Inc., Corning, NY, cat. 354248) for the first three passages. The 947758-054-R-J2-PDC line was cultured in 6B/Colon 1A media, which includes advanced DMEM/F-12 (Thermo Fisher Scientific, cat. 12634028), 10 mM HEPES (Thermo Fisher Scientific, cat. 15630080), 1X GlutaMAX supplement (Thermo Fisher Scientific, cat. 35050061), 0.1 mg/mL primocin (InvivoGen, cat. ant-pm-2), 10% defined fetal bovine serum, heat inactivated (HyClone Laboratories Inc., cat. SH30070.03HI), 1.25 mM N-Acetyl-L-cysteine (Sigma-Aldrich, cat. A9165), 10 mM nicotinamide (Sigma-Aldrich, cat. N0636), 1X B-27 supplement (Thermo Fisher Scientific, cat. 17504044), 1X N-2 supplement (Thermo Fisher Scientific, cat. 17502048), and 10 microM Y-27632 dihydrochloride (Tocris Bioscience, cat. 1254). The 876862-298-R-J1-PDC was cultured in 6E media, which includes all 6B/Colon 1A media components plus 50% L-WRN conditioned media (ATCC, cat. CRL-3276), 50 ng/mL recombinant human EGF recombinant protein (hEGF; Thermo Fisher Scientific, cat. PHG0311), 10 ng/mL recombinant human fibroblast growth factor 10 (hGFG-10; PeproTech, cat. 100-26), 1 ng/mL recombinant human fibroblast growth factor 2 (hFGF-2; PeproTech, cat. 100-18B), and 1 µM prostaglandin E2 (PGE2; Tocris, cat. 2296). The 227483-062-R1-J1-PDC line was cultured in Panc media, containing all 6E components except hFGF-2, with the addition of 500 nM SB-431542 (Selleckchem, cat. S1067) and 10 nM gastrin (Tocris, cat. 3006). […]
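Further: spheroids exposed to the drug combinations for seven days.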
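Wherever viability, T/C is given: percent viability relative to DMSO vehicle control wells taken as 100%.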

CCN1CCN(Cc2ccc(Nc3ncc(F)c(-c4cc(F)c5nc(C)n(C(C)C)c5c4)n3)nc2)CC1 + CN1CCN(c2cc(C(=O)Nc3cc4cc(-c5cnn(C)c5)ccc4cn3)ccn2)CC1
IC50 (second compound 0.0316 µM): > 1 µM
IC50 (second compound 0.1 µM): > 1 µM
IC50 (second compound 0.316 µM): > 1 µM
IC50 (second compound 1 µM): < 0.00316 µM
IC50 (second compound 3.16 µM): < 0.00316 µM
IC50 (second compound 10 µM): < 0.00316 µM
viability, T/C (second compound 0.0316 µM, first compound 0.00316 µM): 96.4%
viability, T/C (second compound 0.0316 µM, first compound 0.01 µM): 87.2%
viability, T/C (second compound 0.0316 µM, first compound 0.0316 µM): 81.5%
viability, T/C (second compound 0.0316 µM, first compound 0.1 µM): 107%
viability, T/C (second compound 0.0316 µM, first compound 0.316 µM): 97.9%
viability, T/C (second compound 0.0316 µM, first compound 1 µM): 97.4%
viability, T/C (second compound 0.1 µM, first compound 0.00316 µM): 91.5%
viability, T/C (second compound 0.1 µM, first compound 0.01 µM): 114%
viability, T/C (second compound 0.1 µM, first compound 0.0316 µM): 83.1%
viability, T/C (second compound 0.1 µM, first compound 0.1 µM): 90.5%
viability, T/C (second compound 0.1 µM, first compound 0.316 µM): 93.1%
viability, T/C (second compound 0.1 µM, first compound 1 µM): 93.1%
viability, T/C (second compound 0.316 µM, first compound 0.00316 µM): 92.7%
viability, T/C (second compound 0.316 µM, first compound 0.01 µM): 91.6%
viability, T/C (second compound 0.316 µM, first compound 0.0316 µM): 96.2%
viability, T/C (second compound 0.316 µM, first compound 0.1 µM): 87.5%
viability, T/C (second compound 0.316 µM, first compound 0.316 µM): 86.9%
viability, T/C (second compound 0.316 µM, first compound 1 µM): 77.9%
viability, T/C (second compound 1 µM, first compound 0.00316 µM): 6.1%
viability, T/C (second compound 1 µM, first compound 0.01 µM): 0.82%
viability, T/C (second compound 1 µM, first compound 0.0316 µM): 1.32%
viability, T/C (second compound 1 µM, first compound 0.1 µM): 4.68%
viability, T/C (second compound 1 µM, first compound 0.316 µM): 6.35%
viability, T/C (second compound 1 µM, first compound 1 µM): 2.16%
viability, T/C (second compound 3.16 µM, first compound 0.00316 µM): 0.75%
viability, T/C (second compound 3.16 µM, first compound 0.01 µM): 0.56%
viability, T/C (second compound 3.16 µM, first compound 0.0316 µM): 0.71%
viability, T/C (second compound 3.16 µM, first compound 0.1 µM): 0.69%
viability, T/C (second compound 3.16 µM, first compound 0.316 µM): 1.11%
viability, T/C (second compound 3.16 µM, first compound 1 µM): 1.38%
viability, T/C (second compound 10 µM, first compound 0.00316 µM): 0.5%
viability, T/C (second compound 10 µM, first compound 0.01 µM): 0.56%
viability, T/C (second compound 10 µM, first compound 0.0316 µM): 1.04%
viability, T/C (second compound 10 µM, first compound 0.1 µM): 0.52%
viability, T/C (second compound 10 µM, first compound 0.316 µM): 0.59%
viability, T/C (second compound 10 µM, first compound 1 µM): 0.61%
